In patent US20210221866A1, “PROTEASE-RESISTANT LIPIDATED GLP-1 ANALOGS” (MEDIMMUNE LIMITED, priority 2015, published 2021):
Like-named read-outs stand apart in the source and are kept apart here. Numbered stars: 1 amine (or outer) side, 2 acyl side, 3 side chain; on linkers, the order of the positions; unused ones are H or OH. Square brackets hold non-standard residues; d marks the D form. Side chains are listed from the residue outwards. Peptide text beside a SMILES is read from it. * marks the point of attachment. γGlu = O=C(O)[C@H](CCC(=O)[*:2])N[*:1]; Stearoyl = CCCCCCCCCCCCCCCCCC(=O)*; Palmitoyl = CCCCCCCCCCCCCCCC(=O)*; αMeF = C[C@](N)(Cc1ccccc1)C(=O)O; Myristoyl = CCCCCCCCCCCCCC(=O)*; αMeK = C[C@](N)(CCCCN)C(=O)O; Lauroyl = CCCCCCCCCCCC(=O)*; αMeS = C[C@](N)(CO)C(=O)O; AEEA = NCCOCCOCC(=O)O; Aib = CC(C)(N)C(=O)O

What was measured:
[1] = molecular target: T1, human glucagon receptor (GCGR) (Homo sapiens, UniProt P47871); assay: cAMP assay, human GCGR cells; format: cell-based; settings: Table 9, bis-lipidated peptides
T1 construct: expressed in transfected cells; host or cells: HEK293 cells or CHO cells
Procedure: (§1) Sample dilutions are made in duplicate.
(§2) A frozen cryo-vial of cells expressing the receptor of interest is thawed rapidly in a water-bath, transferred to pre-warmed assay buffer and spun at 240×g for 5 minutes. Cells are re-suspended in assay buffer at a batch-dependent optimized concentration (e.g. hGCGR cells at 2×10^5 cells/ml, hGLP-1R and hGIPR cells at 1×10^5 cells/ml).
(§3) To this, 5 μL cell suspension is added and the plates incubated at room temperature for 30 minutes.
(§4) cAMP levels are measured using a commercially available cAMP dynamic 2 HTRF kit (Cisbio, Cat #62AM4PEJ), following the two step protocol as per manufacturer's recommendations. In brief; anti-cAMP cryptate (donor fluorophore) and cAMP-d2 (acceptor fluorophore) are made up separately by diluting each 1/20 in conjugate & lysis buffer provided in the kit. 5 μL anti-cAMP cryptate is added to wells of the assay plate, and 5 μL cAMP-d2 is added to wells except non-specific binding (NSB) wells, to which conjugate and lysis buffer are added. […] EC50 values of the synthetic peptides determined in cAMP assays are then determined.
(§5) Data is transformed to % Delta F as described in the manufacturer's guidelines and analyzed by 4-parameter logistic fit to determine EC50 values. […] To compare the balance of activities at the GLP-1R and GCGR between different peptides and across different conditions, these can be correlated, where the EC50's are related to those of comparator peptides.

[2] = molecular target: T2, human glucose-dependent insulinotropic peptide receptor (GIPR) (Homo sapiens, UniProt P48546); assay: cAMP assay, human GIPR cells; format: cell-based; settings: Table 9, bis-lipidated peptides
T2 construct: expressed in transfected cells; host or cells: HEK293 cells or CHO cells
T2 sequence (P48546 22-466): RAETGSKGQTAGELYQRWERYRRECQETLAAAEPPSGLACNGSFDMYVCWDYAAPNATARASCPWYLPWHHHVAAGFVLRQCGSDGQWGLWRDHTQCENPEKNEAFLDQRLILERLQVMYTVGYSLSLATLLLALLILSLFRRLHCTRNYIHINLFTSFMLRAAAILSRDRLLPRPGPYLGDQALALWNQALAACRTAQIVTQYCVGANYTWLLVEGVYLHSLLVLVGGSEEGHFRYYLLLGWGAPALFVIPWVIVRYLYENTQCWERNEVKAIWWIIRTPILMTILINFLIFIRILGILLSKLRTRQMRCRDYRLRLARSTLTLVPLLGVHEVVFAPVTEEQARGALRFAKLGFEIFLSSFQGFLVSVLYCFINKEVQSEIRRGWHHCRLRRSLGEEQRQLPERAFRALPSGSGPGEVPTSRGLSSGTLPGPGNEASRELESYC
Procedure: as §1, §2, §3, §4, §5

[3] = first replicate, read-out: Primary assay EC50 Gluc-R (n1)
[4] = second replicate, read-out: Primary assay EC50 Gluc-R (n2)
[5] = first replicate, read-out: Primary assay EC50 GIP-R (n1)
[6] = second replicate, read-out: Primary assay EC50 GIP-R (n2)

T1 sequence (P47871 26-477): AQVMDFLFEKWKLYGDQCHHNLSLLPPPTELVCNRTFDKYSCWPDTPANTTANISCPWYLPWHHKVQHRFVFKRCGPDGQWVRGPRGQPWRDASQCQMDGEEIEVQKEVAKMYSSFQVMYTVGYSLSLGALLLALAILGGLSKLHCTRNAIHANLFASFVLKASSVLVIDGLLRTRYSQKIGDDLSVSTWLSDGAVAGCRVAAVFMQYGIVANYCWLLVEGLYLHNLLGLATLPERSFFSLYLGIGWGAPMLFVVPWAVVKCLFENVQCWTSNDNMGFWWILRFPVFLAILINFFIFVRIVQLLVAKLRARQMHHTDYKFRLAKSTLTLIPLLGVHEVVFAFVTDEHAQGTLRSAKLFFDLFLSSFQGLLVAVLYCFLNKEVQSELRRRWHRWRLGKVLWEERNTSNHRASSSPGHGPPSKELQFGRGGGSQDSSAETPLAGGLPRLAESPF

## CCCCCCCCCCCC(=O)N[C@@H](CCC(=O)NCCOCCOCC(=O)NCCOCCOCC(=O)NCCCC[C@H](NC(=O)[C@H](CC(=O)O)NC(=O)[C@H](CO)NC(=O)[C@@H](NC(=O)[C@](C)(Cc1ccccc1)NC(=O)[C@H](CO)NC(=O)CNC(=O)[C@H](CCC(=O)O)NC(=O)C(C)(C)NC(=O)[C@@H](N)Cc1c[nH]cn1)[C@@H](C)O)C(=O)N[C@@H](CO)C(=O)N[C@@H](CO)C(=O)N[C@@H](Cc1ccc(O)cc1)C(=O)N[C@@H](CC(C)C)C(=O)N[C@@H](CCC(=O)O)C(=O)NCC(=O)N[C@@H](CCC(=O)O)C(=O)N[C@@H](C)C(=O)N[C@@H](C)C(=O)N[C@@](C)(CCCCN)C(=O)N[C@@H](CCC(=O)O)C(=O)N[C@@H](Cc1ccccc1)C(=O)N[C@H](C(=O)N[C@@H](C)C(=O)N[C@@H](Cc1c[nH]c2ccccc12)C(=O)N[C@@H](CCCCNC(=O)COCCOCCNC(=O)COCCOCCNC(=O)CC[C@H](NC(=O)CCCCCCCCCCC)C(=O)O)C(=O)N[C@H](C(=O)N[C@@H](CCC(=O)O)C(=O)NCC(=O)NCC(N)=O)C(C)C)[C@@H](C)CC)C(=O)O [compound 258] (H-H[Aib]EGS[αMeF]TSDK([AEEA-AEEA-γGlu-Lauroyl])SSYLEGEAA[αMeK]EFIAWK([AEEA-AEEA-γGlu-Lauroyl])VEGG-NH2)
[1]; [3]
  EC50: ≥ 22.3 nM
[1]; [4]
  EC50: ≥ 22.3 nM
[2]; [5]
  EC50: ≥ 22.3 nM
[2]; [6]
  EC50: ≥ 22.3 nM

## CCCCCCCCCCCC(=O)N[C@@H](CCC(=O)NCCOCCOCC(=O)NCCOCCOCC(=O)NCCCC[C@H](NC(=O)[C@H](CO)NC(=O)[C@](C)(CO)NC(=O)[C@@H](NC(=O)[C@H](CC(=O)O)NC(=O)[C@H](CO)NC(=O)[C@@H](NC(=O)[C@](C)(Cc1ccccc1)NC(=O)[C@H](CO)NC(=O)CNC(=O)[C@H](CCC(=O)O)NC(=O)C(C)(C)NC(=O)[C@@H](N)Cc1c[nH]cn1)[C@@H](C)O)C(C)C)C(=O)N[C@@H](CC(C)C)C(=O)N[C@@H](CCC(=O)O)C(=O)NCC(=O)N[C@@H](CCC(=O)O)C(=O)N[C@@H](C)C(=O)N[C@@H](C)C(=O)N[C@@](C)(CCCCN)C(=O)N[C@@H](CCC(=O)O)C(=O)N[C@@H](Cc1ccccc1)C(=O)N[C@H](C(=O)N[C@@H](CCCCNC(=O)COCCOCCNC(=O)COCCOCCNC(=O)CC[C@H](NC(=O)CCCCCCCCCCC)C(=O)O)C(=O)N[C@@H](Cc1c[nH]c2ccccc12)C(=O)N[C@H](C(=O)N[C@H](C(=O)N[C@@H](CCC(=O)O)C(=O)NCC(=O)NCC(N)=O)C(C)C)C(C)C)[C@@H](C)CC)C(=O)O [compound 262] (H-H[Aib]EGS[αMeF]TSDV[αMeS]SK([AEEA-AEEA-γGlu-Lauroyl])LEGEAA[αMeK]EFIK([AEEA-AEEA-γGlu-Lauroyl])WVVEGG-NH2; N-terminus assumed)
[1]; [3]
  EC50: ≥ 22.5 nM
[1]; [4]
  EC50: ≥ 22.5 nM
[2]; [5]
  EC50: ≥ 22.5 nM
[2]; [6]
  EC50: ≥ 22.5 nM

## CCCCCCCCCCCCCC(=O)N[C@@H](CCC(=O)NCCOCCOCC(=O)NCCOCCOCC(=O)NCCCC[C@H](NC(=O)[C@H](C)NC(=O)[C@@H](NC(=O)[C@](C)(Cc1ccccc1)NC(=O)[C@H](CCC(=O)O)NC(=O)[C@](C)(CCCCN)NC(=O)[C@H](C)NC(=O)[C@H](C)NC(=O)[C@H](CCC(=O)O)NC(=O)CNC(=O)[C@H](CCC(=O)O)NC(=O)[C@H](CC(C)C)NC(=O)[C@H](CCCCNC(=O)COCCOCCNC(=O)COCCOCCNC(=O)CC[C@H](NC(=O)CCCCCCCCCCCCC)C(=O)O)NC(=O)[C@H](CO)NC(=O)[C@](C)(CO)NC(=O)[C@@H](NC(=O)[C@H](CC(=O)O)NC(=O)[C@H](CO)NC(=O)[C@@H](NC(=O)[C@](C)(Cc1ccccc1)NC(=O)[C@H](CO)NC(=O)CNC(=O)[C@H](CCC(=O)O)NC(=O)C(C)(C)NC(=O)[C@@H](N)Cc1c[nH]cn1)[C@@H](C)O)C(C)C)[C@@H](C)CC)C(=O)N[C@H](C(=O)N[C@H](C(=O)N[C@@H](CCC(=O)O)C(=O)NCC(=O)NCC(N)=O)C(C)C)C(C)C)C(=O)O [compound 408] (H-H[Aib]EGS[αMeF]TSDV[αMeS]SK([AEEA-AEEA-γGlu-Myristoyl])LEGEAA[αMeK]E[αMeF]IAK([AEEA-AEEA-γGlu-Myristoyl])VVEGG-NH2)
[1]; [3]
  EC50: ≥ 21.5 nM
[1]; [4]
  EC50: ≥ 21.5 nM
[2]; [5]
  EC50: ≥ 21.5 nM
[2]; [6]
  EC50: ≥ 21.5 nM

## CCCCCCCCCCCCCCCC(=O)N[C@@H](CCC(=O)NCCOCCOCC(=O)NCCOCCOCC(=O)NCCCC[C@H](NC(=O)[C@H](C)NC(=O)[C@@H](NC(=O)[C@](C)(Cc1ccccc1)NC(=O)[C@H](CCC(=O)O)NC(=O)[C@](C)(CCCCN)NC(=O)[C@H](C)NC(=O)[C@H](C)NC(=O)[C@H](CCC(=O)O)NC(=O)CNC(=O)[C@H](CCC(=O)O)NC(=O)[C@H](CC(C)C)NC(=O)[C@H](CCCCNC(=O)COCCOCCNC(=O)COCCOCCNC(=O)CC[C@H](NC(=O)CCCCCCCCCCCCCCC)C(=O)O)NC(=O)[C@H](CO)NC(=O)[C@](C)(CO)NC(=O)[C@@H](NC(=O)[C@H](CC(=O)O)NC(=O)[C@H](CO)NC(=O)[C@@H](NC(=O)[C@](C)(Cc1ccccc1)NC(=O)[C@H](CO)NC(=O)CNC(=O)[C@H](CCC(=O)O)NC(=O)C(C)(C)NC(=O)[C@@H](N)Cc1c[nH]cn1)[C@@H](C)O)C(C)C)[C@@H](C)CC)C(=O)N[C@H](C(=O)N[C@H](C(=O)N[C@@H](CCC(=O)O)C(=O)NCC(=O)NCC(N)=O)C(C)C)C(C)C)C(=O)O [compound 409] (H-H[Aib]EGS[αMeF]TSDV[αMeS]SK([AEEA-AEEA-γGlu-Palmitoyl])LEGEAA[αMeK]E[αMeF]IAK([AEEA-AEEA-γGlu-Palmitoyl])VVEGG-NH2; N-terminus assumed)
[1]; [3]
  EC50: ≥ 21.5 nM
[1]; [4]
  EC50: ≥ 21.5 nM
[2]; [5]
  EC50: ≥ 21.5 nM
[2]; [6]
  EC50: ≥ 21.5 nM

## CCCCCCCCCCCCCCCCCC(=O)N[C@@H](CCC(=O)NCCOCCOCC(=O)NCCOCCOCC(=O)NCCCC[C@H](NC(=O)[C@H](C)NC(=O)[C@@H](NC(=O)[C@](C)(Cc1ccccc1)NC(=O)[C@H](CCC(=O)O)NC(=O)[C@](C)(CCCCN)NC(=O)[C@H](C)NC(=O)[C@H](C)NC(=O)[C@H](CCC(=O)O)NC(=O)CNC(=O)[C@H](CCC(=O)O)NC(=O)[C@H](CC(C)C)NC(=O)[C@H](CCCCNC(=O)COCCOCCNC(=O)COCCOCCNC(=O)CC[C@H](NC(=O)CCCCCCCCCCCCCCCCC)C(=O)O)NC(=O)[C@H](CO)NC(=O)[C@](C)(CO)NC(=O)[C@@H](NC(=O)[C@H](CC(=O)O)NC(=O)[C@H](CO)NC(=O)[C@@H](NC(=O)[C@](C)(Cc1ccccc1)NC(=O)[C@H](CO)NC(=O)CNC(=O)[C@H](CCC(=O)O)NC(=O)C(C)(C)NC(=O)[C@@H](N)Cc1c[nH]cn1)[C@@H](C)O)C(C)C)[C@@H](C)CC)C(=O)N[C@H](C(=O)N[C@H](C(=O)N[C@@H](CCC(=O)O)C(=O)NCC(=O)NCC(N)=O)C(C)C)C(C)C)C(=O)O [compound 410] (H-H[Aib]EGS[αMeF]TSDV[αMeS]SK([AEEA-AEEA-γGlu-Stearoyl])LEGEAA[αMeK]E[αMeF]IAK([AEEA-AEEA-γGlu-Stearoyl])VVEGG-NH2; N-terminus assumed)
[1]; [3]
  EC50: ≥ 21.5 nM
[1]; [4]
  EC50: ≥ 21.5 nM
[2]; [5]
  EC50: ≥ 21.5 nM
[2]; [6]
  EC50: ≥ 21.5 nM
